Key:
[1] = molecular target: T1, human B1R (Homo sapiens, UniProt P46663); experiment: FLIPR Ca2+ functional study on bradykinin receptor 1 (hB1R CHO K1 cells); assay type: cell-based; details: % inhibition human B1R at 10 μM, read-out: % inh. (hum. B1R) 10 μM
T1 construct: expressed in transfected cells; host or cells: CHO K1 cells
T1 sequence (P46663 1-353): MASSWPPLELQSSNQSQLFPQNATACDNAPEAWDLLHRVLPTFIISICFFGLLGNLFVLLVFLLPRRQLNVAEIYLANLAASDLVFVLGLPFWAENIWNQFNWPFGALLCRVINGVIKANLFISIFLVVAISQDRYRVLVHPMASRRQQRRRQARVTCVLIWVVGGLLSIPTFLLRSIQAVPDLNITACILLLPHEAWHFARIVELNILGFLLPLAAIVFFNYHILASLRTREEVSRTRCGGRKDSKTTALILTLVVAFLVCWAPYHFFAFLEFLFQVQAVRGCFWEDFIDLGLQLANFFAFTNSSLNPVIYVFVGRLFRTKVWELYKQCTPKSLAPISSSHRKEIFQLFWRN
Experimental: The agonistic or antagonistic activity of substances can be quantified on the bradykinin receptor 1 (B1R) of the species human and rat using ectopically expressing cell lines (CHO K1 cells) and with the aid of a Ca^2+-sensitive dye (Fluo-4) using a fluorescent imaging plate reader (FLIPR). The indication in % activation is based on the Ca^2+ signal after addition of Lys-Des-Arg^9-bradykinin (0.5 nM) or Des-Arg^9-bradykinin (100 nM). Antagonists lead to suppression of the Ca^2+ influx after the addition of the agonist. % Inhibition compared with the maximum achievable inhibition is indicated.
The agonistic or antagonistic activity of substances can be determined on the bradykinin receptor 1 (B1R) of the species human and rat using the following assay. According to this assay, the Ca^2+ influx through the channel is quantified with the aid of a Ca^2+-sensitive dye (Fluo-4 type, Molecular Probes Europe BV, Leiden, Netherlands) using a Fluorescent Imaging Plate Reader (FLIPR, Molecular Devices, Sunnyvale, USA).
Chinese hamster ovary cells (CHO K1 cells) which have been stably transfected with the human B1R gene (hB1R cells) or with the B1R gene of the rat (rB1R cells) are used. For functional studies, the cells are plated out on black 96-well plates having a clear base (BD Biosciences, Heidelberg, Germany or Greiner, Frickenhausen, Germany) in a density of 20,000-35,000 cells/well. The cells are left overnight at 37° C. and with 5% CO2 in culture medium (hB1R cells: Nutrient Mixture Ham's F12, Gibco Invitrogen GmbH, Karlsruhe, Germany or DMEM, Sigma-Aldrich, Taufkirchen, Germany; rB1R cells: D-MEM/F12, Gibco Invitrogen GmbH, Karlsruhe, Germany), with 10 vol.% FBS (fetal bovine serum, Gibco Invitrogen GmbH, Karlsruhe, Germany or PAN Biotech GmbH, Aidenbach, Germany). On the following day, the cells are loaded for 60 minutes at 37° C. with 2.13 μM Fluo-4 (Molecular Probes Europe BV, Leiden, Netherlands) in HBSS buffer (Hank's buffered saline solution, Gibco Invitrogen GmbH, Karlsruhe, Germany) […] (Sigma-Aldrich, Taufkirchen, Germany) and 10 mM HEPES (Sigma-Aldrich, Taufkirchen, Germany). The plates are then washed twice with HBSS buffer, and HBSS buffer additionally containing 0.1% BSA (bovine serum albumin; Sigma-Aldrich, Taufkirchen, Germany), 5.6 mM glucose and 0.05% gelatin (Merck KGaA, Darmstadt, Germany) is added to the plates. After incubation for a further 20 minutes at room temperature, the plates are inserted into the FLIPR for Ca^2+ measurement. Alternatively, washing is carried out with buffer A (15 mM HEPES, 80 mM NaCl, 5 mM KCl, 1.2 mM CaCl2, 0.7 mM MgSO4, 2 g/l glucose, 2.5 mM probenecid) followed by loading with buffer A with added 2.5 μM Fluo-4 and 0.025% Pluronic F127 (Sigma-Aldrich, Taufkirchen, Germany). The cells are then washed twice with buffer A and incubated for 30 minutes at room temperature with buffer A additionally containing 0.05% BSA and 0.05% gelatin and are then inserted into the FLIPR for Ca^2+ measurement. The Ca^2+-dependent fluorescence is measured before and after the addition of substances (λex=488 nm, λem=540 nm). Quantification is carried out by measuring the highest fluorescence intensity (FC, fluorescence counts) over time.
The FLIPR protocol consists of two substance additions. Test substances (10 μM) are first pipetted onto the cells and the Ca^2+ influx is compared with the control (hB1R: Lys-Des-Arg^9-bradykinin>=50 nM; rB1R: Des-Arg^9-bradykinin 10 μM). This gives the activation in %, based on the Ca^2+ signal after addition of Lys-Des-Arg^9-bradykinin (>=50 nM) or Des-Arg^9-bradykinin (10 μM). After 10-20 minutes' incubation, Lys-Des-Arg^9-bradykinin (hB1R) or Des-Arg^9-bradykinin (rB1R) is applied in the concentration of the EC80, and the influx of Ca^2+ is likewise determined. Antagonists lead to suppression of the Ca^2+ influx. The % inhibition compared with the maximum achievable inhibition is calculated. […]

[2] = molecular target: T2, rat B1R (Rattus norvegicus, UniProt P97583); experiment: FLIPR Ca2+ functional study on bradykinin receptor 1 (rB1R CHO K1 cells); assay type: cell-based; details: for inhibition at 10 µM: CHO-K1, % inhibition rat B1R at 10 μM, read-out: % inh. (rat B1R) 10 μM; for % inh. (rat B1R) 10 μM: % inhibition rat B1R at 10 μM
T2 construct: expressed in transfected cells; host or cells: CHO K1 cells
T2 sequence (P97583 1-337): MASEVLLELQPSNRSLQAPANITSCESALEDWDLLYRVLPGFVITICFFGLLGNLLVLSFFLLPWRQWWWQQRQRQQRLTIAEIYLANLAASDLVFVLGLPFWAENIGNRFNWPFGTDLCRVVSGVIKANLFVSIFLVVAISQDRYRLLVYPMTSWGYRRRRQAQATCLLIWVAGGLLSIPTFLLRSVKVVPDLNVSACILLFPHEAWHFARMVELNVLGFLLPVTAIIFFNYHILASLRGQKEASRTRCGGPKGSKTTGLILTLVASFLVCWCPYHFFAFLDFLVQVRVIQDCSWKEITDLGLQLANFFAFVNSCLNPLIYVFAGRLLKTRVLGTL
Outline: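 CHO K1 cells stably expressing human or rat B1R were loaded with Fluo-4 and read on FLIPR (ex 488/em 540 nm, peak counts). Test compound (10 μM, or a concentration range for IC50) was added first for % activation versus control agonist; after 10-20 min, EC80 Lys-Des-Arg9-bradykinin (human) or Des-Arg9-bradykinin (rat) was added, giving % inhibition of maximum. n=2-3, N≥2.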

Structure (SMILES) | inhibition at 10 µM [1] [%] | inhibition at 10 µM [2] [%] | % inh. (rat B1R) 10 μM [2] [%]
Cc1ccc(Cl)c(S(=O)(=O)N(CCOc2nccc(N3CCC4(CCN(c5ccncc5)CC4)CC3)n2)C2CC2)c1Cl [Example G-021, 2,6-dichloro-N-cyclopropyl-3-methyl-N-[2-[4-(9-pyridin-4-yl-3,9-diazaspiro[5.5]undecan-3-yl)-pyrimidin-2-yl]oxy-ethyl]-benzenesulfonic acid amide] | 90 | 86 | –
COc1cc(C)c(S(=O)(=O)NC2(COc3nccc(N4CCC5(CCN(c6ccncc6)CC5)CC4)n3)CCC2)c(C)c1 [Example G-022, 4-methoxy-2,6-dimethyl-N-[1-[[4-(9-pyridin-4-yl-3,9-diazaspiro[5.5]undecan-3-yl)-pyrimidin-2-yl]oxy-methyl]-cyclobutyl]-benzenesulfonic acid amide] | 100 | 103 | –
COc1cc(C)c(S(=O)(=O)N(CCOc2nccc(N3CCC4(CC3)CCC(OCCN3CCCC3)(c3cccnc3)CC4)n2)C2CC2)c(C)c1 [Example G-023, N-cyclopropyl-4-methoxy-2,6-dimethyl-N-[2-[4-[9-pyridin-3-yl-9-(2-pyrrolidin-1-yl-ethoxy)-3-azaspiro[5.5]undecan-3-yl]-pyrimidin-2-yl]oxy-ethyl]-benzenesulfonic acid amide] | 94 | 107 | –
COc1cc(C)c(S(=O)(=O)NC(C)(C)COc2nccc(N3CCC4(CCN(c5ccncc5)CC4)CC3)n2)c(C)c1 [Example G-024, N-[1,1-dimethyl-2-[4-(9-pyridin-4-yl-3,9-diazaspiro[5.5]undecan-3-yl)-pyrimidin-2-yl]oxy-ethyl]-4-methoxy-2,6-dimethyl-benzenesulfonic acid amide] | 99 | 113 | –
COc1cc(C)c(S(=O)(=O)N(CCCOc2nccc(N3CCC4(CCN(c5ccncc5)CC4)CC3)n2)C2CC2)c(C)c1 [Example G-025, N-cyclopropyl-4-methoxy-2,6-dimethyl-N-[3-[4-(9-pyridin-4-yl-3,9-diazaspiro[5.5]undecan-3-yl)-pyrimidin-2-yl]oxy-propyl]-benzenesulfonic acid amide] | 92 | 104 | –
COc1cc(C)c(S(=O)(=O)N2CCCC[C@H]2COc2nccc(N3CCC4(CCN(c5ccncc5)CC4)CC3)n2)c(C)c1 [Example G-026, 3-[2-[[(2S)-1-[(4-methoxy-2,6-dimethyl-phenyl)sulfonyl]-piperidin-2-yl]-methoxy]-pyrimidin-4-yl]-9-pyridin-4-yl-3,9-diazaspiro[5.5]undecane] | 98 | 101 | –

Results, then the molecule that gave them:

inhibition at 10 µM [1] [%] | inhibition at 10 µM [2] [%] | % inh. (rat B1R) 10 μM [2] [%] | Structure (SMILES)
44 | 99 | – | COc1cc(C)c(S(=O)(=O)N(C)CCOc2ccnc(N3CCC(CCN4CCCC4)CC3)n2)c(C)c1 [Example H-001, 4-methoxy-N,2,6-trimethyl-N-[2-[[2-[4-(2-1-pyrrolidinylethyl)-1-piperidinyl]-4-pyrimidinyl]oxy]ethyl]benzenesulfonamide]
81 | 51 | – | COc1cc(C)c(S(=O)(=O)N(C)CCOc2ccnc(N3CCN(c4ccncc4)CC3)n2)c(C)c1 [Example H-002]
90 | – | 71 | COc1cc(C)c(S(=O)(=O)N(C)CCOc2ccnc(N(C)CCN3CCC(c4ccccc4)(N(C)C)CC3)n2)c(C)c1 [Example H-003, N-[2-[[2-[2-(4-dimethylamino-4-phenyl-1-piperidinyl)ethyl-methylamino]-4-pyrimidinyl]oxy]ethyl]-4-methoxy-N,2,6-trimethylbenzenesulfonamide]
99 | – | 93 | COc1cc(C)c(S(=O)(=O)N2CCCCC2COc2ccnc(N(C)CCN3CCC(c4ccccc4)(N(C)C)CC3)n2)c(C)c1 (stereo not drawn) [Example H-004]
98 | 97 | – | COc1cc(C)c(S(=O)(=O)N(CCOc2ccnc(N3CCC(Oc4ccncc4)CC3)n2)C2CC2)c(C)c1 [Example H-005, N-cyclopropyl-4-methoxy-2,6-dimethyl-N-[2-[[2-[4-(4-pyridyloxy)-1-piperidinyl]-4-pyrimidinyl]oxy]ethyl]benzenesulfonamide]
64 | 92 | – | Cc1cccc(Cl)c1S(=O)(=O)N(CCOc1ccnc(N2CCC3(CCN(c4ccncc4)CC3)CC2)n1)C1CC1 [Example H-006, 2-chloro-N-cyclopropyl-6-methyl-N-[2-[[2-[9-(4-pyridyl)-3,9-diazaspiro[5.5]undecan-3-yl]-4-pyrimidinyl]oxy]ethyl]benzenesulfonamide]
11 | 80 | – | COc1cc(C)c(S(=O)(=O)N2CC(Oc3ccnc(N4CCC5(CCN(c6ccncc6)CC5)CC4)n3)C2)c(C)c1 [Example H-007, 3-[4-[[1-(4-methoxy-2,6-dimethylphenyl)sulfonyl-3-azetidinyl]oxy]-2-pyrimidinyl]-9-(4-pyridyl)-3,9-diazaspiro[5.5]undecane]
98 | 88 | – | COc1cc(C)c(S(=O)(=O)N(CCOc2cc(N3CCC4(CCN(c5ccncc5)CC4)CC3)ncn2)C2CC2)c(C)c1 [Example I-001, N-cyclopropyl-4-methoxy-2,6-dimethyl-N-[2-[[6-[9-(4-pyridyl)-3,9-diazaspiro[5.5]undecan-3-yl]-4-pyrimidinyl]oxy]ethyl]benzenesulfonamide]
94 | 109 | – | COc1cc(C)c(S(=O)(=O)N(CCN(C)c2cncc(N3CCC4(CCN(c5ccncc5)CC4)CC3)n2)C2CC2)c(C)c1 [Example I-002, N-cyclopropyl-4-methoxy-2,6-dimethyl-N-[2-[methyl-[6-(9-pyridin-4-yl-3,9-diazaspiro[5.5]undecan-3-yl)-pyrazin-2-yl]-amino]-ethyl]-benzenesulfonic acid amide]
